# In US12084521B2, “TLR9 inhibitors to suppress inflammatory response to pathogens” (University Of Maryland, Baltimore, priority 2018, dated 2024):
# “Also recorded” adds a separate entry of the source. No end group written: not given here. Cy3 = Cy3 fluorescent dye label
# Experiments:
# [1] = test system: TLR9 signaling; test: ODN 1668-induced cytokine mRNA expression in BMDM (quantitative real time PCR); format: cell-based, mouse; details: BMDM; for TNFα mRNA expression / IL-12-p40 mRNA expression / IL-10 mRNA expression: peptide 10, 20 or 40 μM 30 min before ODN 1668 (1 μM), normalized to HPRT; for TNFα mRNA expression: 1 hour after stimulation; for IL-12-p40 mRNA expression / IL-10 mRNA expression: 1 hour; for inhibition of TLR9 signaling (ODN 1668-induced cytokine mRNA, overall): peptide 10, 20 or 40 μM, ODN 1668 1 μM
# Procedure: The cDNA obtained was amplified with gene-specific primers for mouse HPRT, TNFα, IL-10, IL-12-p40, or IL-6 and Fast SYBR Green™ master mix (Applied Biosystemsm) as previously described.
# Mouse BMDMs were incubated in the presence of a 10, 20 or 40 μM decoy peptide for 30 minutes prior to stimulation with ODN 1668 (1 μM). […] Data represent the means±SEM of at least three independent experiments. The statistical significance of changes in cytokine mRNA was determined by a one-way ANOVA test; *p<0.001. Peptides 9R3 and 9R34 have overlapping sequences (see Table 1).
# To investigate inhibition of TLR9 signaling by 9R34 analogues, the following work was performed. Mouse BMDMs were incubated in the presence of a 10, 20 or 40 μM decoy peptide for 30 minutes prior to stimulation with ODN 1668 (1 μM). Cytokine mRNA expression was measured 1 hour after ODN 1668 challenge and normalized to the expression of HPRT. See also Table 1. Data represent means±SEM of at least three independent experiments.
# [2] = target: T1, MyD88 TIR (Homo sapiens, UniProt Q99836); test: FLIM/FRET binding of Cy3-labeled peptides to Cer-fused TIR in HeLa cells
# T1 construct: expressed in transfected cells; host or cells: HeLa
# Procedure: (§1) Three million HeLa cells were transfected with 10 μg of MyD88-Cer, TIRAP-Cer, TRAM-Cer, TLR2-Cer, TLR4 TIR-Cer, or TLR9 TIR-Cer expression vectors using a Lipofectamine™ 3000 kit from Invitrogen™ per manufacturer recommendations. Twenty four hours later, the transfected cells were trypsinized and reseeded into a 50-well gasket (Grace Bio-Labs™) mounted on a microscope slide at the density 8000 cells/well. The next day, cells were treated with Cy3-9R34-ΔN or Cy3-9R11 for 1 hour and fixed on the slides with a 4% paraformaldehyde solution.
# (§2) Fluorescence lifetime images were acquired using the Alba V FLIM™ system (ISS™ Inc.). The excitation was from the laser diode 443 nm coupled with scanning module (ISS™) through multiband dichroic filter 443/532/635 nm (Semrock™) to Olympus™ IX71S microscope with objective 20×0.45 NA (UPlan™ Olympus™). Emission was observed through bandpass filter […] (Chroma Technology™) and detected by a photomultiplier H7422-40 (Hamamatsu™). Measurements were performed using frequency domain (FD) and time domain (TD) modalities of the FLIM system. FD FLIM data were acquired using ISS™ A320 FastFLIM™ electronics with n harmonics of 20 MHz laser repetition frequency (n=1, 2, 3, 4, 5, 6). FastFLIM™ was calibrated using fluorescein in buffer pH 8.0 as a standard with a single lifetime of 4.0 ns. TD FLIM images were acquired using time-correlated single photon counting TCSPC™ Model SPC-830 (Becker & Hick™).
# (§3) Images (256×256 pixels) were acquired with resolution varied in the range ˜0.4-0.7 μm/pixel, using scan speed 1 ms/pixel. To avoid pixel intensity saturation in bright cells and to improve the signal from dim cells, two to five overlapping scans were used for acquisition of FLIM images. Image sizes varied from 100×100 to 180×180 μm to accommodate multiple cells. FLIM data were analyzed with VistaVision™ Suite software (Vista™ v.212 from ISST). Fluorescence lifetime was determined using single- and bi-exponential intensity decay models. Average lifetime images were generated based on pixel-by-pixel analysis using the combined signal of two neighboring pixels in all directions (bin 2=25 pixels). The binning was used to improve the signal for analysis. The average lifetimes were calculated from fitted parameters, decay times τi and amplitudes αi, τa=Σαiτi. The bi-exponential fitting procedure was performed with one lifetime component fixed at 3.1 nsec, which was found common for most images. To calculate the effective FRET efficiency (E), average lifetimes of the donor only images (τD) and donor-acceptor images (τDA) were used, E=1−τDA/τD.
# (§4) To identify potential binding partners of inhibitory peptides a FRET approach coupled with Fluorescence Lifetime Imaging Microscopy (FLIM) was used. HeLa cells were transiently transfected with an expression vector that encodes a TIR domain fused with Cerulean fluorescent protein (Cer). Cells were treated with various concentrations of a Cy3-labeled inhibitory peptide 48 hours after transfection. Cy3 is a suitable FRET acceptor for Cer fluorescence. A direct molecular interaction of a Cy3-labeled peptide with Cer-fused TIR domain should quench Cer fluorescence, leading to a decreased fluorescence lifetime.
# (§5) TLR9, MyD88, and TIRAP were selected as potential primary binding partners for Cy3-9R34-ΔN and Cy3-9R11. Cer-fused TLR2 and TLR4 TIR domains, and Cer not fused to a TIR, were used as controls. […] Therefore, the TIRAP-Cer with Cy3-2R9 was used as a positive binding control. Binding of Cy3-labeled CPDPs to Cerulean- (Cer-) labeled TIR domains was tested as follows. Fluorescence Lifetime IMages (FLIM) were made of HeLa cells expressing Cer not fused with a TIR domain (upper row) or fused with TLR9 TIR or TIRAP TIR (middle and bottom rows) and treated with a Cy3-labeled decoy peptide for 1 hour.
# (§6) A progressive shift of average fluorescence lifetime towards lower values observed with increasing peptide concentrations indicates the binding between donor and acceptor moieties. […]
# [3] = target: T2, TLR9 TIR (Homo sapiens, UniProt Q9NR96); test: as above; details: HeLa cells, Cy3-peptide 2.5-40 μM, 1 hour, dose-dependent
# T2 construct: expressed in transfected cells; host or cells: HeLa
# T2 sequence (Q9NR96 868-1013 limits assumed): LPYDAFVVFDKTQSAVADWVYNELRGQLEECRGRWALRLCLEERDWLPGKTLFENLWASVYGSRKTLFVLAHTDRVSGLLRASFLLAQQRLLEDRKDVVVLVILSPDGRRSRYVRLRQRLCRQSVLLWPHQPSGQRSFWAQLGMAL
# Procedure: as §1, §2, §3, §4, §5, §6
# [4] = target: T3, TIRAP TIR (Homo sapiens, UniProt P58753); test: as above; details: HeLa cells, Cy3-peptide 2.5-40 μM, 1 hour
# T3 construct: fused with TLR9 TIR or TIRAP TIR; expressed in transfected cells; host or cells: HeLa
# Procedure: as §1, §2, §3, §4, §5, §6
# [5] = test system: Cer not fused to a TIR domain; test: FLIM/FRET control construct in HeLa cells; format: binding; details: peptide 40 μM
# Procedure: as §1, §2, §3, §5
# [6] = test system: myDDosome; details: BMDM pretreated with CPDP; MyD88 IP, IRAK4 blot
# Procedure: Four million BMDMs per well were plated in 6-well plates and treated with CPDP for 30 minutes prior to stimulation with ODN 1668 for 90 minutes. Cells were lysed in 600 p L of buffer containing 20 mM HEPES (pH 7.4), 150 mM NaCl, 10 mM NaF, 2 mM Na3VO4, 1 mM EDTA, 1 mM EGTA, 0.5% Triton X-100, 0.1 mM DTT, and protease inhibitor cocktail (Roche™). Cell extracts were incubated overnight with 1 μg of anti-mouse MyD88 antibody (AF3109) (R&D Systems™, followed by a 4-hour incubation with 20 μL protein G Sepharose beads (ThermoFisherm Scientific). The beads were then washed 3 times with 500 μL of lysis buffer and boiled in 60 μL of Laemmli sample buffer (Bio-Rad™). Cell extracts were electrophoresed on 10% acrylamide gel by SDS-PAGE and transferred to PVDF membrane (Bio-Rad™). Rabbit anti-MyD88 IgG was purchased from Cell Signaling™. Mouse anti-IRAK4 IgG was obtained from Abcam™. Alkaline phosphatase-conjugated secondary antibodies against mouse and rabbit IgG were purchased from Cell Signaling™. The stabilized substrate for alkaline phosphatase was from Promega™.
# TLR stimulation causes formation of myDDosome, a signaling complex composed through interactions of IRAK and MyD88 death domains. To test if peptides inhibit myDDosome formation, MyD88 was immunoprecipitated from lysates of ODN-stimulated BMDM and the precipitates analyzed for IRAK4 presence. BMDM were lysed and lysates immunoprecipitated with anti-MyD88 Ab and immune complexes assessed with anti-IRAK4 Ab 3 hours after cell treatment with ODN 1668.
# [7] = test system: TLR9 signaling; test: Plasma cytokines after i.p. ODN 1668 in mice; format: in vivo, C57BL/6J mice; details: peptide 200 nmol/mouse i.p.; ODN 1668 7.86 nmol/mouse
# Procedure: Systemic cytokine levels were measured in plasma samples obtained 1, 3, and 5 hours after intraperitoneal (i.p.) administration of 7.86 nmol (50 μg) of ODN 1668 or 67 nmol of Pam3C per mouse, using ELISA kits from Biolegend™ Inc. CPDP were dissolved in PBS and administered i.p. at the dose of 200 nmol per mouse 1 hour before administration of a TLR agonist. For survival experiments, mice were sensitized to TLR9 agonists by i.p. injection of 20 mg of D-Gal 30 minutes before administration of peptides or PBS. ODN 1668 was used at the doses of 3.93 or 7.86 nmol/mouse (25 or 50 μg/mouse) 1.5 hours after D-Gal. Animal survival was monitored for 50 hours. All agents were administered i.p. in 500 μL volume of PBS. Animals had free access to food and water during the observation period. All animal experiments were conducted in accordance with the national guidelines for the care and use of laboratory animals under a protocol that was approved by the UMB IACUC.
# To test the in vivo efficacy and specificity of 9R34-ΔN, C57BL/6J mice were mock-treated or treated i.p. with a single dose of inhibitory or control peptide (200 nmol/mouse) and challenged with TLR9 agonist ODN 1668 (7.86 nmol/mouse) or TLR2/1 agonist Pam3C (67 nmol/mouse) 1 hour later. Plasma concentrations of TNFα and IL-12-p40 were measured 1, 3, and 5 hours after the challenge. Both TLR agonists increased concentrations of TNFα and IL-12-p40 in 1 hour samples from below the limit of detection to about 1.2 and about 6 ng/mL in the case of ODN 1668, and to 0.12 ng/mL and 1 ng/mL after treatment with Pam3C.
# Plasma TNFα and IL-12-p40 levels following intraperitioneal administration of ODN 1668 to C57Bl/6J mice in peptide-pretreated and control mice are shown in FIG. 14A and FIG. 14B. Data shown in these figures represent the means±SEM obtained in at least three independent experiments. The statistical significance of changes in cytokine concentrations was determined by a two-way ANOVA test; *p<0.001.
# [8] = test system: TLR9 signaling; test: ODN 1668-induced cytokine secretion in BMDM supernatants (ELISA); format: cell-based, mouse; details: peptide 40 μM; 5 hour supernatants; ODN 1668 1 μM
# Procedure: Mouse TNFα and IL-12-p40 concentrations were measured in supernatants using ELISA kits from Biolegend™, Inc.
# BMDMs were incubated in the presence of a decoy peptide for 30 minutes prior to stimulation with ODN 1668 (1 μM). The statistical significance of changes in cytokine levels was determined by the one-way ANOVA test; *p<0.01.
# T1 sequence (Q99836 159-293 limits assumed): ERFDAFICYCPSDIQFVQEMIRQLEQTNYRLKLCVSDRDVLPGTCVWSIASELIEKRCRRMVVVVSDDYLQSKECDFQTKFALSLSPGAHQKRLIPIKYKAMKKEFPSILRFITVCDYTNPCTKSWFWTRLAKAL
# T3 sequence (P58753 84-213 limits assumed): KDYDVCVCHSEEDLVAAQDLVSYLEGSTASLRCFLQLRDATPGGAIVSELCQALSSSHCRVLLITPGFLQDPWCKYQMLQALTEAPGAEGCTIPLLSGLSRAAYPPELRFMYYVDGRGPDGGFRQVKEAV
substance,measurement,setting,value
HTDRVSGLLRASFL (Synthetic peptide 9R6),TNFα mRNA expression,[1],partial activity
same,IL-12-p40 mRNA expression,[1],partial activity
same,"inhibition of TLR9 signaling (ODN 1668-induced cytokine mRNA, overall)",[1],some inhibitory activity; also recorded: weakly inhibited
"Cy3-9R11: Cy3-labeled 9R11 peptide, Cy3 label placed at the peptide N-terminus (Cy3-RQIKIWFQNRRMKWKKRSFWAQLGMALTRD)",quenching of MyD88-Cer fluorescence lifetime,[2],"detectable, but less effective"
same,"FRET efficiency, TLR9 TIR-Cer",[3],3-27%
same,quenching of TIRAP-Cer fluorescence,[4],"induced FRET from TIRAP-Cer, but only when used at higher concentrations of 10 or 40 μM"
same,fluorescence lifetime of Cer not fused to a TIR domain (unspecific quenching),[5],Unspecific Cer quenching
"RGQLEECRGRWALR (also: antennapedia vector attached) [Peptide 9R3, tested as CPDP with antennapedia vector]",TNFα mRNA expression,[1],significantly suppressed
same,IL-10 mRNA expression,[1],significantly suppressed
same,IL-12-p40 mRNA expression,[1],significantly suppressed
same,"inhibition of TLR9 signaling (ODN 1668-induced cytokine mRNA, overall)",[1],inhibit TLR9 signaling
SPDGRRSRYVR (Synthetic peptide 9R8),"inhibition of TLR9 signaling (ODN 1668-induced cytokine mRNA, overall)",[1],some inhibitory activity
GRWALRLSLEERD (Synthetic peptide 9R34-C/S),"inhibition of TLR9 signaling (ODN 1668-induced cytokine mRNA, overall)",[1],as potent as the parent peptide
DKTQSAVADWVYNE (Synthetic peptide 9R2),ODN 1668-induced myDDosome formation,[6],not
same,"inhibition of TLR9 signaling (ODN 1668-induced cytokine mRNA, overall)",[1],did not inhibit TLR9
same,"ODN 1668-induced plasma cytokine levels (TNFα, IL-12-p40)",[7],did not significantly reduce
LEERDWLPGKTLFE (Synthetic peptide 9R4),"inhibition of TLR9 signaling (ODN 1668-induced cytokine mRNA, overall)",[1],did not inhibit
GRWALRACLEERD (Synthetic peptide 9R34-delta-L1) [Peptide 9R34-ΔL1],"inhibition of TLR9 signaling (ODN 1668-induced cytokine mRNA, overall)",[1],inhibited TLR9 signaling less potently
GRWALRLCLE (Synthetic peptide 9R34-delta-C) [Peptide 9R34-ΔC],"inhibition of TLR9 signaling (ODN 1668-induced cytokine mRNA, overall)",[1],as potent as the parent peptide
RYVRLRQRLCRQS (Synthetic peptide 9R9),TNFα mRNA expression,[1],significantly suppressed
same,IL-10 mRNA expression,[1],significantly suppressed
same,IL-12-p40 mRNA expression,[1],significantly suppressed
same,"inhibition of TLR9 signaling (ODN 1668-induced cytokine mRNA, overall)",[1],inhibit TLR9 signaling; also recorded: inhibited signaling weaker than 9R34 or 9R11
same,production/secretion of TNFα,[8],did not inhibit significantly
same,secretion of IL-12-p40,[8],reduced secretion
GRWALRACAEERD (Synthetic peptide 9R34-delta-L2) [Peptide 9R34-ΔL2],"inhibition of TLR9 signaling (ODN 1668-induced cytokine mRNA, overall)",[1],inhibited TLR9 signaling less potently
